Results taken from ChEMBL document CHEMBL1833905, “Design, synthesis and primary activity assay of tripeptidomimetics as histone deacetylase inhibitors with linear linker and branched cap group” (Eur J Med Chem, 2011).

How the values were obtained:
MCF7 = experiment: Antiproliferative activity against human MCF7 cells after 48 hrs by MTT assay; assay type: functional, cell-based; conditions: MCF7, 48 h
PC-3 = experiment: cells; conditions: Homo sapiens, PC-3, 48 h
Histone deacetylase 8 = target: T1, Histone deacetylase 8 (Homo sapiens, UniProt Q9BY41); experiment: Inhibition of human HDAC8 expressed in Escherichia coli using Boc-Lys (acetyl)-AMC as substrate treated for 5 mins before substrate addition measured after 30 mins by fluorescence assay
T1 sequence (Q9BY41 whole entry): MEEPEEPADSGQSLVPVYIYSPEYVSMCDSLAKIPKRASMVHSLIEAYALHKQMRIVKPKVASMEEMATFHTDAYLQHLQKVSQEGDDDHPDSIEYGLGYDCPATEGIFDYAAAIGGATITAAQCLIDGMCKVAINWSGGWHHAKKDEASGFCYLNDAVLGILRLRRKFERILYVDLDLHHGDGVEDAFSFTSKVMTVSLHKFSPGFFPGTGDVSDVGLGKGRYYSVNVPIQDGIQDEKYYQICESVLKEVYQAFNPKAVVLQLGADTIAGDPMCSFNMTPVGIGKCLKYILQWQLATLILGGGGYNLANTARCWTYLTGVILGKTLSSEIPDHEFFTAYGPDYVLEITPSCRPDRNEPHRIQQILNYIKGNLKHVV

Histone deacetylase 1 = Histone deacetylase 1 (Homo sapiens, UniProt Q13547); experiment: Inhibition of human HDAC1 expressed in Escherichia coli using fluorogenic substrate treated for 5 mins before substrate addition measured after 30 mins by fluorescence assay
MDA-MB-231 = experiment: Antiproliferative activity against human MDA-MB-231 cells after 48 hrs by MTT assay; assay type: functional, cell-based; conditions: MDA-MB-231, 48 h

Chain of Histone deacetylase 1 (Q13547 whole entry): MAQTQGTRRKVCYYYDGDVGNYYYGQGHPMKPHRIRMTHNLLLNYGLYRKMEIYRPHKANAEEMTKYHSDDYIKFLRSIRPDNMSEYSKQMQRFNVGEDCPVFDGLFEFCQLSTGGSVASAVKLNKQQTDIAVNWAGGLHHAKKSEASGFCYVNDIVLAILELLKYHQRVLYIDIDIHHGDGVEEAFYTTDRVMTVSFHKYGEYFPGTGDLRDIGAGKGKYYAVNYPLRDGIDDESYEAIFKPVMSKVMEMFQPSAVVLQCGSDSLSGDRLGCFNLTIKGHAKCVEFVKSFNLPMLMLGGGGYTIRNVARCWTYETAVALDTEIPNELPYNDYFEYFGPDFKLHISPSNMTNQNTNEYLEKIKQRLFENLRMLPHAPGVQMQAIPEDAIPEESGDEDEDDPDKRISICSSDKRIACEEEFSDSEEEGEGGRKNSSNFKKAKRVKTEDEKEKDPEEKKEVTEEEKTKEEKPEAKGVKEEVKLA

| IC50 (MCF7) | IC50 (PC-3) | IC50 (Histone deacetylase 8) | IC50 (Histone deacetylase 1) | IC50 (MDA-MB-231) | Compound |
| --- | --- | --- | --- | --- | --- |
| – | – | 2590 nM | – | – | O=C(CCCCCNC(=O)[C@@H]1CC2(CN1)SCCS2)NO |
| – | – | 690 nM | – | – | N[C@@H](Cc1c[nH]c2ccccc12)C(=O)N1CC2(C[C@H]1C(=O)NCCCCCC(=O)NO)SCCS2 |
| – | – | 1930 nM | – | – | NCCC(=O)N1CC2(C[C@H]1C(=O)NCCCCCC(=O)NO)SCCS2 |
| – | – | 840 nM | – | – | N[C@@H](Cc1ccccc1)C(=O)N1CC2(C[C@H]1C(=O)NCCCCCC(=O)NO)SCCS2 |
| 3510 nM | 4300 nM | – | 680 nM | 3500 nM | CC(C)C[C@H](NC(=O)OC(C)(C)C)C(=O)N1CC2(C[C@H]1C(=O)NCCCCCC(=O)NO)SCCS2 |
| 9160 nM | 13700 nM | 140 nM | 750 nM | 5830 nM | CC(C)(C)OC(=O)N[C@@H](Cc1c[nH]c2ccccc12)C(=O)N1CC2(C[C@H]1C(=O)NCCCCCC(=O)NO)SCCS2 |
| – | 1980 nM | – | – | – | O=C(CCCCCCC(=O)Nc1ccccc1)NO [VORINOSTAT] |
| – | – | 960 nM | – | – | CC(C)(C)OC(=O)NCCCC(=O)N1CC2(C[C@H]1C(=O)NCCCCCC(=O)NO)SCCS2 |
| – | – | 4770 nM | – | – | NCCCC[C@H](N)C(=O)N1CC2(C[C@H]1C(=O)NCCCCCC(=O)NO)SCCS2 |
| 21600 nM | 24700 nM | 21 nM | 450 nM | 30500 nM | CC(C)(C)OC(=O)N[C@@H](Cc1ccc(O)cc1)C(=O)N1CC2(C[C@H]1C(=O)NCCCCCC(=O)NO)SCCS2 |
| 7780 nM | 12700 nM | 35 nM | 980 nM | 2790 nM | CC(C)(C)OC(=O)N[C@@H](Cc1ccccc1)C(=O)N1CC2(C[C@H]1C(=O)NCCCCCC(=O)NO)SCCS2 |
| 42500 nM | 34600 nM | 350 nM | 980 nM | 12800 nM | CC(C)(C)OC(=O)NCCCC[C@H](NC(=O)OC(C)(C)C)C(=O)N1CC2(C[C@H]1C(=O)NCCCCCC(=O)NO)SCCS2 |

| Compound | IC50 (MCF7) | IC50 (PC-3) | IC50 (Histone deacetylase 8) | IC50 (Histone deacetylase 1) | IC50 (MDA-MB-231) |
| --- | --- | --- | --- | --- | --- |
| N[C@@H](Cc1ccc(O)cc1)C(=O)N1CC2(C[C@H]1C(=O)NCCCCCC(=O)NO)SCCS2 | > 100000 nM | > 100000 nM | 490 nM | 450 nM | > 100000 nM |
